Data reported in patent US20240108623A1, “METHODS OF TREATING CANCER WITH POZIOTINIB” (BOARD OF REGENTS, THE UNIVERSITY OF TEXAS SYSTEM, priority 2021, published 2024).

Columns and labels:
Experiment in all cases: Ba/F3 cell drug screening, Cell Titer Glo
Format in all cases: cell-based
EGFR A763insLQEA = target: T1, EGFR A763insLQEA (Homo sapiens, UniProt P00533, INS763LQEA); settings: Ba/F3 cells expressing EGFR A763insLQEA; 72 hours
T1 construct: expressed in transfected cells; host or cells: Ba/F3 (retroviral, pBabe-Puro based vector)
Summary of the method: (§1)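 72 h viability, CellTiter-Glo luminescence; EGFR-mutant Ba/F3 (IL-3-independent, 1 ng/ml EGF), 7-point TKI dose vs DMSO, technical triplicate, 2–3 biological replicates. Normalized to DMSO; IC50 by variable-slope nonlinear regression at 50% inhibition.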

EGFR G719S T790M = target: T2, EGFR G719S T790M (Homo sapiens, UniProt P00533, G719S/T790M); settings: Ba/F3 cells expressing EGFR G719S T790M; 72 hours
T2 construct: expressed in transfected cells; host or cells: Ba/F3 (retroviral transduction, pBabe-Puro based vectors)
Summary of the method: as §1

EGFR L858R/V834L = target: T3, EGFR L858R/V834L (Homo sapiens, UniProt P00533, L858R/V834L); settings: Ba/F3 cells expressing EGFR L858R/V834L; 72 hours
T3 construct: expressed in transfected cells; host or cells: Ba/F3 (retroviral, pBabe-Puro based vector)
Summary of the method: as §1

EGFR S768dupSVD V769M = target: T4, EGFR S768dupSVD V769M (Homo sapiens, UniProt P00533, INS768MDS/V769M); settings: Ba/F3 cells expressing EGFR S768dupSVD V769M; 72 hours
T4 construct: expressed in transfected cells; host or cells: Ba/F3 (retroviral, pBabe-Puro based vector; created by GeneScript from EGFR S768dupSVD, c.2305G > A)
Summary of the method: as §1

`C=CC(=O)N1CCC(Oc2cc3c(Nc4ccc(Cl)c(Cl)c4F)ncnc3cc2OC)CC1` [Poziotinib] was tested, and the “Response of Cells Comprising Classical-Like EGFR Mutations to Second-Generation TKIs” value (EGFR A763insLQEA) was 0.01607, the “Response of Cells Comprising T790M-like-S EGFR Mutations to Second-Generation TKIs” value (EGFR G719S T790M) was 0.3262 and the “Response of Cells Comprising Classical-Like EGFR Mutations to Second-Generation TKIs” value (EGFR L858R/V834L) was 0.08599. The “Response of Cells Comprising Ex20ins EGFR Mutations to Poziotinib” value (EGFR S768dupSVD V769M) was 0.07874.
